PMC10191376, “Characterization of the L-arabinofuranose-specific GafABCD ABC transporter essential for L-arabinose-dependent growth of the lignocellulose-degrading bacterium Shewanella sp. ANA-3” (Microbiology, 2023)
Each block holds one molecule with its values, some of them ahead of it.

Columns and labels:
[1] = target: T1, GafASm (Smb_21587) (Sinorhizobium meliloti, UniProt Q926G2); test: DSF thermal shift (ΔTm […] °C at […]); assay type: binding; details: read-out: ΔT m (°C) at 1.2 mM [ligand] / GafASm
T1 construct: gene SM_b21587

[2] = target: GafASw (Shewana3_2073); test: ITC, intrinsic fluorescence ([…]), DSF; assay type: binding, Shewanella sp. ANA-3
[3] = target: GafASw (Shewana3_2073); test: crystal structure ([…] Å), ITC, intrinsic fluorescence, DSF; assay type: binding, Shewanella sp. ANA-3
[4] = target: T1, GafASm (Smb_21587); test: DSF thermal shift (ΔTm […] °C at […]); assay type: binding; details: read-out: ΔT m (°C) at 1.2 mM [ligand] / GafASm; remark: listed apart in the source
[5] = target: T1, GafASm (Smb_21587); test: DSF thermal shift (ΔTm […] °C at […]), weak; assay type: binding; details: read-out: ΔT m (°C) at 1.2 mM [ligand] / GafASm
[6] = target: T1, GafASm (Smb_21587); test: DSF thermal shift (ΔTm […] °C at […]); assay type: binding; details: read-out: ΔT m (°C) at 1.2 mM [ligand] / GafASm; remark: listed apart in the source

T1 sequence (Q926G2 entry or part of it): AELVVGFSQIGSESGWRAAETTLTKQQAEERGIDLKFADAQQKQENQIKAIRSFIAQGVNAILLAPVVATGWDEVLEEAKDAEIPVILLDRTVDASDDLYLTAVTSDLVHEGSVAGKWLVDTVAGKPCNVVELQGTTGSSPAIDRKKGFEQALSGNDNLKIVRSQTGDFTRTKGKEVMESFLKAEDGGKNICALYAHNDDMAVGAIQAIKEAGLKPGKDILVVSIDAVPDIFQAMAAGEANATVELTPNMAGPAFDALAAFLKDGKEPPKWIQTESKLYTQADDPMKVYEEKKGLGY

SMILES: OC1OC[C@H](O)[C@H](O)[C@H]1O (stereo partly drawn) [L-arabinose]
- ΔTm at 1200 µM [1]: 14.4 ± 0.2 °C

SMILES: OC[C@H]1OC(O)[C@H](O)[C@H](O)[C@@H]1O (stereo partly drawn) [D-allose]
- Kd [2]: 27.4 ± 4.32 µM

SMILES: OC[C@@H]1OC(O)[C@H](O)[C@H]1O (stereo partly drawn) [L-arabinofuranose]
- Kd [3]: 5.8 ± 0.51 µM

SMILES: OC[C@H]1OC(O)[C@H](O)[C@@H](O)[C@H]1O (stereo partly drawn) [D-galactose]
- ΔTm at 1200 µM [4]: 11.6 ± 0.2 °C

The next lines start with the values.

- ΔTm at 1200 µM [5]: 3.4 ± 0.2 °C
SMILES: OC[C@H]1OC(O)[C@@H](O)[C@@H](O)[C@H]1O (stereo partly drawn) [D-talose]

- ΔTm at 1200 µM [6]: 11.8 ± 0.2 °C
SMILES: C[C@H]1OC(O)[C@H](O)[C@@H](O)[C@H]1O (stereo partly drawn) [D-fucose]
